# Tested on: 8×TBD luciferase reporter (YAP) in HEK293T cells
# Assay: YAP Reporter Assay (8×TBD firefly luciferase reporter)
# Type: cell-based
# Settings: Homo sapiens, HEK-293T, 24 h, read-out: Firefly Luciferase IC50 (μM)
# Experimental: HEK293T cells stably transfected with 8×TBD luciferase reporter and pRLTK in 384-well plates were treated with the test compounds, starting from 3 μM (final concentration in assay plate), 1:3 dilution, and 10 points in quadruplicates. Post 24-hr incubation with compounds at 37° C. and 5% CO2, cells were lysed and 8×TBD-driven firefly luciferase and control TK-driven renilla luciferase activities were measured using Promega Dual-Luciferase Reporter Assay System.
# Reagents: The reagents used for this study are: DMEM: Invitrogen #11960077, Dual-Glo Luciferase Assay System: Promega-E2980, Puromycin Dihydrochloride: Invitrogen-A1113803, 384-well plate: PerkinElmer-6007480, L-GLUTAMINE: Invitrogen-25030164, Hygromycin B: Invitrogen-10687010, and Penicillin-Streptomycin: Merk-TMS-AB2-C
# Media: The media used for this assay were: Culture Medium: DMEM+1 ug/mL puromycin+200 ug/mL hygromycin (with 10% FBS+1 mM L-glutamine); and Assay Medium: DMEM (with 10% FBS+1 mM L-glutamine+1×P/S).
# Cell Plating: The appropriate media was warmed at 37° C. by water bath: Culture Medium, Assay Medium, 1*D-PBS, 0.05% trypsin-EDTA. The cells were trypsinized after removing all media, then washed with 1*sterile D-PBS and then with 2 ml 0.05% trypsin-EDTA. The cells were then incubated at RT for one minute. Then 10 ml/75 cm2 flask Assay Medium was added to each flask. Using a 10 ml pipette, the cells were then gently resuspended in the media, until the clumps completely disappeared. The cells were then transferred into 50 ml centrifuge tubes and were centrifuged at 800 rpm for 5 mins. The medium was removed and the cells were resuspended with Assay Medium. An aliquot of cells was used to count the cell density (cells/ml). The cell suspension was then diluted with Assay Medium to a concentration of 6×10^4 cells/ml. 50 ul cells suspension was then plated to 384-well plate (PerkinElmer-6007480), 3×10^3 cells/well and the cells were incubated in an incubator at 37° C., 5% CO2.
# Compound Treatment: In the afternoon (incubation of the plate with 3-4 hrs), the test compounds were added by Echo, starting from 3 uM (final concentration in the assay plate), 1:3 dilution, 10 points, quadruplicates. The plate was placed at 37° C., 5% CO2 incubator for 24 hrs.
# Detection: The Dual-Glo Luciferase Reagent was prepared by transferring the contents of one bottle of Dual-Glo Luciferase Buffer to one bottle of Dual-Glo Luciferase Substrate to create the Dual-Glo Luciferase Reagent. Mixing was performed by inversion until the substrate was thoroughly dissolved. After mixing, the reagent was aliquoted into 15 ml tubes. In the afternoon (24 hrs post compound treatment), the DMEM+medium in the 384 well plates were aspirated by Microplate Washer.
# Measuring firefly luciferase activity: 20 ul Dual-Glo Luciferase Reagent was added to the 384-well plates. The plates were protected from light to prevent interference with the assay. The plates were shaken for 1 min followed centrifuging plates at 1000 rpm for 30 seconds. After waiting at least 10 minutes, the firefly luminescence was measured by Envision.
# Measuring renilla luciferase activity: 20 ul Stop-Glo Reagent was added to the 384-well plates. The plates were shaken for 1 min and then centrifuged at 1000 rpm for 30 seconds. After waiting at least 10 minutes, the renilla luminescence was measured by Envision.
# Compound IC50 and maximum inhibition on the firefly luciferase and renilla luciferase activities were reported separately.
row,Compound,IC50
1,"CC(C)NC(=O)c1ccc2c(Oc3cccc(Cl)c3)cccc2c1 [Compound 2, 5-(3-chlorophenoxy)-N-isopropyl-2-naphthamide]",< 0.1 µM

# Same assay, conditions: Homo sapiens, HEK-293T; HEK293T cells stably transfected with 8×TBD luciferase reporter and pRLTK; 24-hr incubation; firefly luciferase activity; read-out: Firefly Luciferase IC50
row,Compound,IC50
1,"C[C@H](NC(=O)c1ccc2c(Oc3ccc(C(F)(F)F)cc3)cccc2c1)C1CN(CC(F)F)C1 [Compound 134, (S)—N-(1-(1-(2,2-difluoroethyl)azetidin-3-yl)ethyl)-5-(4-(trifluoromethyl)phenoxy)-2-naphthamide]",1 to 3 µM
2,"C[C@@H](NC(=O)c1ccc2c(Oc3ccc(C(F)(F)F)cc3)cccc2c1)C1CCN(CCF)CC1 [Compound 154, (R)-N-(1-(1-(2-fluoroethyl)piperidin-4-yl)ethyl)-5-(4-(trifluoromethyl)phenoxy)-2-naphthamide]",0.1 to 1 µM
3,"CC(C)NC(=O)c1ccc2c(Oc3ccc(C(F)(F)F)cc3F)cccc2c1 [Compound 84, 5-(2-fluoro-4-(trifluoromethyl)phenoxy)-N-isopropyl-2-naphthamide]",< 0.1 µM
4,"C[C@H](CO)NC(=O)c1ccc2c(Oc3ccc(C(F)(F)F)cc3)cccc2c1 [Compound 24, (R)—N-(1-hydroxypropan-2-yl)-5-(4-(trifluoromethyl)phenoxy)-2-naphthamide]",< 0.1 µM
5,"CCN1CCC([C@@H](C)NC(=O)c2ccc3c(Oc4ccc(C(F)(F)F)cc4)cccc3c2)CC1 [Compound 155, (R)-N-(1-(1-ethylpiperidin-4-yl)ethyl)-5-(4-(trifluoromethyl)phenoxy)-2-naphthamide]",0.1 to 1 µM
6,"COc1cc(Oc2ccc(C(F)(F)F)cc2)c2ncc(C(=O)N[C@H](C)c3ccccn3)cc2c1 [Compound 42, (R)-6-methoxy-N-(1-(pyridin-2-yl)ethyl)-8-(4-(trifluoromethyl)phenoxy)quinoline-3-carboxamide]",0.1 to 1 µM
7,"C[C@H](CO)NC(=O)c1cc2cccc(Oc3ccc(C(F)(F)F)cc3)c2s1 [Compound 33, (R)—N-(1-hydroxypropan-2-yl)-7-(4-(trifluoromethyl)phenoxy)benzo[b]thiophene-2-carboxamide]",< 0.1 µM
8,"COC[C@H](C)NC(=O)c1cnc2c(Oc3ccc(C(F)(F)F)cc3)cccc2c1 [Compound 18, N-[(1S)-2-methoxy-1-methyl-ethyl]-8-[4-(trifluoromethyl)phenoxy]quinoline-3-carboxamide]",< 0.1 µM
9,"C[C@@H](NC(=O)c1ccc2c(Oc3ccc(C(F)(F)F)cc3)cccc2c1)c1cn(C)cn1 [Compound 91, N-[(1R)-1-(1-methylimidazol-4-yl)ethyl]-5-[4-(trifluoromethyl)phenoxy]naphthalene-2-carboxamide]",< 0.1 µM
10,"C[C@H](NC(=O)c1ccc2c(Oc3ccc(C(F)(F)F)cc3)cccc2c1)c1cc(N(C)C)ccn1 [Compound 73, (S)—N-(1-(4-(dimethylamino)pyridin-2-yl)ethyl)-5-(4-(trifluoromethyl)phenoxy)-2-naphthamide]",0.1 to 1 µM
11,"CN(C#N)CCNC(=O)c1ccc2c(Oc3ccc(C(F)(F)F)cc3)cccc2c1 [Compound 31, N-(2-(N-methylcyanamido)ethyl)-5-(4-(trifluoromethyl)phenoxy)-2-naphthamide]",< 0.1 µM
12,"C[C@H](CCNCCF)NC(=O)c1ccc2c(Oc3ccc(C(F)(F)F)cc3)cccc2c1 [Compound 148, (R)-N-(4-((2-fluoroethyl)amino)butan-2-yl)-5-(4-(trifluoromethyl)phenoxy)-2-naphthamide]",< 0.1 µM
13,"C[C@H](NC(=O)c1ccc2c(Oc3ccc(C(F)(F)F)cc3)cccc2c1)c1cn(C)cn1 [Compound 92, N-[(1S)-1-(1-methylimidazol-4-yl)ethyl]-5-[4-(trifluoromethyl)phenoxy]naphthalene-2-carboxamide]",0.1 to 1 µM
14,"C[C@H](NC(=O)c1ccc2c(Oc3ccc(C(F)(F)F)cc3)cccc2c1)C1COC1 [Compound 41, (S)—N-(1-(oxetan-3-yl)ethyl)-5-(4-(trifluoromethyl)phenoxy)-2-naphthamide]",< 0.1 µM
15,"O=C(NC1(c2ccccn2)CC1)c1ccc2c(Oc3ccc(C(F)(F)F)cc3)cccc2c1 [Compound 54, N-(1-(pyridin-2-yl)cyclopropyl)-5-(4-(trifluoromethyl)phenoxy)-2-naphthamide]",< 0.1 µM
16,"C[C@H](CCNCC(F)F)NC(=O)c1ccc2c(Oc3ccc(C(F)(F)F)cc3)cccc2c1 [Compound 149, (R)-N-(4-((2,2-difluoroethyl)amino)butan-2-yl)-5-(4-(trifluoromethyl)phenoxy)-2-naphthamide]",< 0.1 µM
17,"C[C@@H](CCN)NC(=O)c1ccc2c(Oc3ccc(C(F)(F)F)cc3)cccc2c1 [Compound 111, (S)—N-(4-aminobutan-2-yl)-5-(4-(trifluoromethyl)phenoxy)-2-naphthamide]",< 0.1 µM
18,"CC(C)N1CCC([C@@H](C)NC(=O)c2ccc3c(Oc4ccc(C(F)(F)F)cc4)cccc3c2)CC1 [Compound 156, (R)-N-(1-(1-isopropylpiperidin-4-yl)ethyl)-5-(4-(trifluoromethyl)phenoxy)-2-naphthamide]",0.1 to 1 µM
19,"CC(=O)N1CC([C@@H](C)NC(=O)c2ccc3c(Oc4ccc(C(F)(F)F)cc4)cccc3c2)C1 [Compound 101, (R)—N-(1-(1-acetylazetidin-3-yl)ethyl)-5-(4-(trifluoromethyl)phenoxy)-2-naphthamide]",0.1 to 1 µM
20,"CC(C)NC(=O)c1ccc2c(Oc3ccc(F)c(F)c3)cccc2c1 [Compound 8, 5-(3,4-difluorophenoxy)-N-isopropyl-2-naphthamide]",< 0.1 µM
21,"C[C@@H](NC(=O)c1ccc2c(Oc3ccc(C(F)(F)F)cc3)cccc2c1)c1ncc[nH]1 [Compound 64, (R)—N-(1-(1H-imidazol-2-yl)ethyl)-5-(4-(trifluoromethyl)phenoxy)-2-naphthamide]",< 0.1 µM
22,"C#CCNC(=O)c1ccc2c(Oc3ccc(C(F)(F)F)cc3)cccc2c1 [Compound 20, N-(prop-2-yn-1-yl)-5-(4-(trifluoromethyl)phenoxy)-2-naphthamide]",< 0.1 µM
23,"C[C@H](NC(=O)c1ccc2c(Oc3ccc(C(F)(F)F)cc3)cccc2c1)c1c[nH]cn1 [Compound 49, (S)—N-(1-(1H-imidazol-4-yl)ethyl)-5-(4-(trifluoromethyl)phenoxy)-2-naphthamide]",< 0.1 µM
24,"C[C@@H](NC(=O)c1ccc2c(Oc3ccc(C(F)(F)F)cc3)cccc2c1)C1CNC1 [Compound 96, N-[(1R)-1-(azetidin-3-yl)ethyl]-5-[4-(trifluoromethyl)phenoxy]naphthalene-2-carboxamide]",< 0.1 µM
25,"C[C@H](NC(=O)c1ccc2c(Oc3ccc(C(F)(F)F)cc3)cccc2c1)C1CNC1 [Compound 95, N-[(1S)-1-(azetidin-3-yl)ethyl]-5-[4-(trifluoromethyl)phenoxy]naphthalene-2-carboxamide]",< 0.1 µM
26,"C[C@H](CO)NC(=O)c1cnc2c(Oc3ccc(C(F)(F)F)cc3)cc(F)c(F)c2c1 [Compound 102, (R)-5,6-difluoro-N-(1-hydroxypropan-2-yl)-8-(4-(trifluoromethyl)phenoxy)quinoline-3-carboxamide]",< 0.1 µM
27,"C#C[C@H](C)NC(=O)c1ccc2c(Oc3ccc(C(F)(F)F)cc3)cccc2c1 [Compound 62, (S)—N-(but-3-yn-2-yl)-5-(4-(trifluoromethyl)phenoxy)-2-naphthamide]",< 0.1 µM
28,"C[C@@H](NC(=O)c1cnc2c(Oc3ccc(C(F)(F)F)cc3)cccc2c1)c1cccc2ccsc12 [Compound 105, (R)—N-(1-(benzo[b]thiophen-7-yl)ethyl)-8-(4-(trifluoromethyl)phenoxy)quinoline-3-carboxamide]",0.1 to 1 µM
29,"C[C@H](NC(=O)c1ccc2c(Oc3ccc(C(F)(F)F)cc3)cccc2c1)c1ccccn1 [Compound 29, (S)—N-(1-(pyridin-2-yl)ethyl)-5-(4-(trifluoromethyl)phenoxy)-2-naphthamide]",< 0.1 µM

# Source: patent publication US11420935B2, “Bicyclic compounds” (Vivace Therapeutics, Inc., priority 2019, dated 2022)
